In experiment [1] the test system is 4T1 mouse mammary carcinoma cells. As to the kind of experiment: 4T1 allograft breast cancer model, anti-tumor and anti-metastatic efficacy. Type of experiment: in vivo. The protocol: In vivo anti-metastatic and anti-tumor efficacy studies. 4T1 mouse mammary carcinoma cells is a highly aggressive cell line that forms tumors when grafted in Balb/c mice. […] All the in vivo experimental protocols were approved by the Institutional Animal Ethics Committee, CPCSEA, of the Indian Institute of Integrative Medicine, Jammu. The animals were maintained at 22° C. with a 12 h light-dark cycle and free access to feed and water inside the institutional animal house. Proper care was taken to maintain them in a healthy condition and to avoid any risk of possible pathogenic contaminations. For subcutaneous implantation of 4T1 cells, the Balb/c mice were distributed into four groups bearing five mice in each group. For tumor induction, 1.5 million 4T1 cells were suspended in serum-free media and injected into the mammary pad of the animal and kept in the animal house for tumor induction. After the tumor reached an adequate size (30-150 mm^3) the mice in the allotted groups were treated with vehicle (normal saline), 15 and 30 mg/kg 2a & 30 mg/kg DIM (positive control) for every alternate day and was continued for two weeks. After the treatment, the mice were sacrificed by cervical dislocation, and the tumor was dissected out from the mammary pad, the tumor volume was measured, and images were taken. Subsequently, to examine the anti-metastatic property of the compound 2a, the chest cavity was dissected to remove the lungs, and after washing with PBS, the metastatic nodules in the lung due to 4T1 migration were checked and subsequently counted.
The anti-proliferative as well as anti-metastatic role of compound 2a was studied in 4T1 allograft breast cancer model. Briefly, 1.5×10^6 4T1 mammary breast cancer cells were injected in mouse mammary pad and kept undisturbed until the formation of tumor. Subsequently, the mice were treated with 15 and 30 mg/kg of compound 2a along with a positive control 30 mg/kg di-indoyl methane (DIM) molecule and normal saline as vehicle. The drugs were administered intraperitonially for each alternate day for 2 weeks. The animals were sacrificed and tumours were harvested from the mammary pad and tumor weight was measured (FIG. 7a & b). Moreover, the lungs were also removed and photographed to study the presence of metastatic patches. […] Furthermore, the tumors were subjected to tissue lysis and immunoblot analysis was performed to study the expression of Snail-1. Twist-1, STAT-3, Vimentin and E-cadherin.

Experiment [2] has as its system HCT-116 cells. As to the kind of experiment: MTT cell viability assay, HCT-116. The following applies: Homo sapiens, HCT-116, 48 h, read-out: Cytotoxicity (IC50) HCT-116, MTT, 48 h; colorectal adenocarcinoma cells. Type of experiment: cell-based. The procedure:
(§1) Cell viability assay: The cell viability was determined by the standard MTT assay method. Briefly, Panc-1, HCT-116, A549, PC3, MIAPaca-2, HT-29, MDA-MB-231, MCF7 cells, and fR2cells were seeded in 96 well tissue culture plates (Nunc) at a density of 4×10^3 cells per well and treated with varying concentrations of the test compounds in triplicates. DMSO was taken as a vehicle, and its final concentration was maintained at 0.2% in the culture medium. Doxorubicin was employed as a positive control. After 44 h of incubation, MTT dye solution was added into the medium, and cells were incubated for another 4 h at 37° C. in 5% CO2. The amount of colored formazan derivatives formed was measured by taking optical density (OD) using a microplate reader (TECAN, Infinite M200 Pro) at 570 nm, and the percentage of cell viability was calculated. The IC50 values were calculated using GraphPad Prism software (Version 5.0).
Background: Formazan colour is commonly taken as a measure of viable cells.

Experiment [3] concerns MIAPaCa-2 cells. Nature of the experiment: MTT cell viability assay, MIAPaCa-2. Type of experiment: cell-based, human. The following applies: Homo sapiens, MIA PaCa-2, 48 h, read-out: Cytotoxicity (IC50) MIAPaCa-2, MTT, 48 h. The procedure:
as §1

In experiment [4] the test system is PC3 cells. As to the kind of experiment: MTT cell viability assay, PC3. Type of experiment: cell-based. The note with it: Homo sapiens, PC-3, 48 h, read-out: Cytotoxicity (IC50) PC3, MTT, 48 h. The protocol:
as §1

Experiment [5] has as its system MIAPaCa-2 cells. As to the kind of experiment: In-situ gelatin degradation assay, MIAPaCa-2. The following applies: MIAPaCa-2, from 0.5 μM onwards, 36 h. Type of experiment: cell-based, human. The protocol:
Matrix gelatin degradation assay. In-situ gelatin degradation assay is performed to detect the formation of migratory structures (invadopodia & filopodia). Briefly, glass coverslips were coated with gelatin tagged with FITC, and the coated coverslips were dipped into 70% ethanol and immersed into a 6 well plate filled with RPMI and the coverslips were kept in a CO2 incubator for 1-2 h for preconditioning. Later on, both MIAPaCa-2 and MDA-MB-231 cells were seeded onto the coverslips and kept overnight for attachment. Treatment of the compound 2a (0.5, 1.5, 3 & 5 μM) was given on the next day and continued for 36 h. Upon termination, the coverslips were washed with ice-cold PBS, and then it was fixed in 4% paraformaldehyde for 15 min and then washed with PBS. Finally, the coverslips were mounted using mounting media consist of glycerol, and the edges were sealed with nail polish. After drying, the slides were observed under a fluorescence microscope to assess a degraded area's presence. The fluorescent images were captured, and the images were further processed in Image J software (Version 1.50i) to quantify the degraded area in each field.
Now this particular derivative was further analysed for its ability to inhibit the molecular signatures of EMT. […]

The subject of experiment [6] is lung adenocarcinoma cells (A549). As to the kind of experiment: MTT cell viability assay, A549. Type of experiment: cell-based. The following applies: Homo sapiens, A549, 48 h, read-out: Cytotoxicity (IC50) A549, MTT, 48 h. The protocol: as §1
The test system of experiment [7] is HCT-116 cells. Nature of the experiment: Chromosome isolation and staining (chromosomal stability). Type of experiment: cell-based. The following applies: HCT-116, 2a in combination with 5FU, compared to vehicle/750 nM 5FU/3 μM 2a. The source says:
The effect of the compound 2a in combination with DNA damaging drug 5-Fluorouracil in colon adenocarcinoma cells was studied. […] Consequently, the major repair factor RAD-51 got diminished as compared to 5FU alone treated lane. The immunoblot results also depicted the downmodulation of cellular survival factor BCL-2 and subsequent upregulation of proapoptotic protein Bax (FIG. 8a). […] Moreover, the effect of the combinatorial treatment on chromosomal stability in HCT-116 cells by chromosome isolation and staining was studied.

For experiment [8], the system named is human colorectal adenocarcinoma cell line (HT-29). As to the kind of experiment: MTT cell viability assay, HT-29. Type of experiment: cell-based. The following applies: Homo sapiens, HT-29, 48 h, read-out: Cytotoxicity (IC50) HT-29, MTT, 48 h; human colorectal adenocarcinoma cell line. The procedure:
as §1

Where [9] appears, read: tumor lysate immunoblot, 30 mg/kg.

By IC50 is commonly meant the midpoint of a concentration-inhibition curve.

Turning to `CCCCCc1cc(O[C@@H]2OC(CO)[C@@H](O)C(O)C2O)c2c(c1)OC(C)(C)[C@@H]1CCC(C)=C[C@@H]21` (stereo partly drawn) [Compound 2a, Δ^9-tetrahydrocannabinol-1-O-β-D-glucopyranoside], in experiment [1] (Balb/c mice, 4T1, 15 & 30 mg/kg intraperitoneal, alternate day for 2 weeks), the “metastatic white patches on lungs” value is reported as “white patches were not observed”. The tumor weight result in experiment [1] (Balb/c mice, 4T1, 15 and 30 mg/kg intraperitoneal, alternate day for 2 weeks, vs normal saline) is on record as “drastically reduced”. Moreover, the “tumor E-cadherin level” value in experiment [1] (setting [9]) is listed as “increased considerably”. Moreover, in experiment [1] (setting [9]), the “tumor expression of Twist-1” value is “curbed”. Moreover, the “tumor expression of Snail-1, STAT-3 and Vimentin” value in experiment [1] (tumor lysate immunoblot, 15 and 30 mg/kg) is recorded as “decreases significantly”. The half-inhibitory concentration (IC50) was found to be 2.1 µM in experiment [2]; 1.42 µM in experiment [3]; 7.17 µM in experiment [4]; 1.44 µM in experiment [6]; 3.16 µM in experiment [8]. For the same compound, the gelatin degraded area result in experiment [5] is listed as “significant loss of gelatin degraded area”. Also, the chromosomal aberrations entry in experiment [7] is “significantly increases chromosomal abbreations”.

(Values after US20240382509A1, “Cannabinoids C- and O-glycosides possessing anti-proliferative and anti-metastatic properties and process for preparation thereof” (Council of Scientific and Industrial Research, priority 2021, published 2024).)
